Target: T1, BgaP β-galactosidase
T1 construct: recombinant full-length, 675 amino acids (GenBank XED97098)
Assay: inhibition of ONPG hydrolysis by purified enzyme, […] °C, pH […]; Lineweaver-Burk
Type: biochemical, Paenibacillus sp. 8

SMILES | Ki
OC[C@H]1OC(O)[C@H](O)[C@@H](O)[C@H]1O (some centres unmarked) [galactose] | 6.99 mM
OC[C@H]1OC(O)[C@H](O)[C@@H](O)[C@@H]1O (some centres unmarked) [glucose] | 27.3 mM
